{"source": "paper PMC8835363", "about": "“Arachidin-1, a Prenylated Stilbenoid from Peanut, Induces Apoptosis in Triple-Negative Breast Cancer Cells” (International Journal of Molecular Sciences, 2022)", "format_in_all_cases": "cell-based, human", "key": {"MDA-MB-436 cells [1]": {"tested_on": "MDA-MB-436 cells", "test": "Annexin V-FITC/PI apoptosis assay (flow cytometry)", "settings": "mean ± SD", "experimental": "(§1) Cells (10^6 cells/well) were seeded onto 6-well plates. After 24 h, the cells were incubated with A-1 (0.1 and 1 µM) for 24, 48, and 72 h. The control groups were incubated with 0.01% DMSO (ATCC; Manassas, VA, USA) for every hour. Then, cells were collected and washed twice with cold 1X PBS and stained with both annexin V-FITC and PI for 5 min at room temperature. The cells were analyzed by flow cytometry using BD FACS Aria (BD Biosciences, Franklin Lakes, NJ, USA). The positive controls (annexin negative/PI negative; annexin negative/PI positive; and annexin positive/PI negative) were used to set up compensation and set quadrants. The early apoptotic cells were measured in the quadrant of annexin V positive/PI negative and late apoptotic/necrotic cells were measured in the quadrant of annexin positive/PI positive. Data were analyzed with FlowJo™ v10.8 Software (BD Life Sciences; Ashland, OR, USA). All experiments were performed in triplicates."}, "MDA-MB-231 cells [2]": {"tested_on": "MDA-MB-231 cells", "test": "Annexin V-FITC/PI apoptosis assay (flow cytometry)", "settings": "mean ± SD", "experimental": "as §1"}, "MDA-MB-436 cells [3]": {"tested_on": "MDA-MB-436 cells", "test": "RealTime-Glo MT cell viability (cytotoxicity) assay", "settings": "for IC50: Homo sapiens", "experimental": "(§2) The cytotoxicity of RES, A-1, and A-3 was measured using the RealTime-Glo^TM MT Cell Viability Assay (Promega, Madison, WI, USA). The cells (10,000 cells/well) were seeded into 96-well plates. […] Cells with 0.1% DMSO (ATCC; Manassas, VA, USA) were included as a control. Luminescence was measured every 12 h for 72 total hours in a Cytation^TM 5 (BioTek, Winooski, VT, USA) plate reader. All experiments were performed in triplicates."}, "MDA-MB-231 cells [4]": {"tested_on": "MDA-MB-231 cells", "test": "RealTime-Glo MT cell viability (cytotoxicity) assay", "settings": "for IC50: Homo sapiens", "experimental": "as §2"}, "MCF-10A cells": {"tested_on": "MCF-10A cells", "test": "Cell cycle analysis with PI (flow cytometry)", "settings": "0.1 and 1 µM, 24, 48, 72 h", "experimental": "(§3) Cells were seeded onto 6-well plates and treated with A-1 (0.1 µM and 1 µM) for 24, 48, and 72 h. Cells incubated with 0.01% DMSO (ATCC; Manassas, VA, USA) were used as a control. Then, MDA-MB-231 and MCF-10A cells were collected by trypsinization; MDA-MB-436 cells were collected by scraping. Treated cells were fixed with ice-cold 70% ethanol while vortexing and incubated for 1 h in 4 °C. Then, cells were washed with cold 1X DPBS, treated with 1 mg/mL of ribonuclease A, and incubated for 30 min at 37 °C. The cells were then stained with 10 µg/mL of propidium iodide (PI), incubated for 30 min at 37 °C, and analyzed by flow cytometry using BD FACS Aria Sorter (BD Biosciences, Franklin Lakes, NJ, USA). Data were analyzed with Modfit LT 5.0 software (Verity Software House; Topsham, ME, USA). All experiments were performed in triplicates."}, "MDA-MB-436 cells [5]": {"tested_on": "MDA-MB-436 cells", "test": "Cell cycle analysis with PI (flow cytometry)", "experimental": "as §3"}, "MDA-MB-231 cells [6]": {"tested_on": "MDA-MB-231 cells", "test": "Cell cycle analysis with PI (flow cytometry)", "experimental": "as §3"}}, "data": [{"compound": "CC(C)/C=C/c1c(O)cc(/C=C/c2ccc(O)c(O)c2)cc1O", "note": "[A-1, arachidin-1]", "values": [{"measurement": "percentage of early apoptotic cells", "setting": "MDA-MB-436 cells [1]; 0.1 µM, 24 h", "value": "35.76 ± 4.10", "unit": "%"}, {"measurement": "percentage of early apoptotic cells", "setting": "MDA-MB-436 cells [1]; 0.1 µM, 48 h", "value": "44.90 ± 0.89", "unit": "%"}, {"measurement": "percentage of early apoptotic cells", "setting": "MDA-MB-436 cells [1]; 0.1 µM, 72 h", "value": "45.73 ± 0.96", "unit": "%"}, {"measurement": "percentage of early apoptotic cells", "setting": "MDA-MB-436 cells [1]; 1 µM, 24 h", "value": "35.27 ± 3.78", "unit": "%"}, {"measurement": "percentage of early apoptotic cells", "setting": "MDA-MB-436 cells [1]; 1 µM, 48 h", "value": "46.11 ± 3.40", "unit": "%"}, {"measurement": "percentage of early apoptotic cells", "setting": "MDA-MB-436 cells [1]; 1 µM, 72 h", "value": "38.77 ± 2.59", "unit": "%"}, {"measurement": "percentage of cells in early apoptosis", "setting": "MDA-MB-231 cells [2]; 0.1 µM, 24 h", "value": "21.29 ± 1.94", "unit": "%"}, {"measurement": "percentage of cells in early apoptosis", "setting": "MDA-MB-231 cells [2]; 0.1 µM, 48 h", "value": "63.47 ± 0.90", "unit": "%"}, {"measurement": "percentage of cells in early apoptosis", "setting": "MDA-MB-231 cells [2]; 0.1 µM, 72 h", "value": "53.1 ± 2.50", "unit": "%"}, {"measurement": "percentage of cells in early apoptosis", "setting": "MDA-MB-231 cells [2]; 1 µM, 24 h", "value": "24.76 ± 1.65", "unit": "%"}, {"measurement": "percentage of cells in early apoptosis", "setting": "MDA-MB-231 cells [2]; 1 µM, 48 h", "value": "68.67 ± 0.76", "unit": "%"}, {"measurement": "percentage of cells in early apoptosis", "setting": "MDA-MB-231 cells [2]; 1 µM, 72 h", "value": "51.77 ± 2.37", "unit": "%"}, {"measurement": "IC50", "setting": "MDA-MB-436 cells [3]; MDA-MB-436, 24 h, MDA-MB-436, 24 h", "value": 12000, "unit": "nM"}, {"measurement": "IC50", "setting": "MDA-MB-436 cells [3]; MDA-MB-436, 24 h, MDA-MB-436, 24 h, in Figure 2 panels", "value": 1620, "unit": "nM"}, {"measurement": "IC50", "setting": "MDA-MB-436 cells [3]; MDA-MB-436, 48 h, MDA-MB-436, 48 h", "value": 6200, "unit": "nM"}, {"measurement": "IC50", "setting": "MDA-MB-436 cells [3]; MDA-MB-436, 48 h, MDA-MB-436, 48 h, in Figure 2 panels", "value": 2740, "unit": "nM"}, {"measurement": "IC50", "setting": "MDA-MB-436 cells [3]; MDA-MB-436, 72 h, MDA-MB-436, 72 h", "value": 2090, "unit": "nM"}, {"measurement": "IC50", "setting": "MDA-MB-436 cells [3]; MDA-MB-436, 72 h, MDA-MB-436, 72 h, in Figure 2 panels", "value": 2090, "unit": "nM"}, {"measurement": "IC50", "setting": "MDA-MB-436 cells [3]; MDA-MB-436, MDA-MB-436, all treatment time points", "value": "~2000", "unit": "nM"}, {"measurement": "antiproliferative effect (cell viability vs control)", "setting": "MDA-MB-436 cells [3]; MDA-MB-436, 1 µM, 24, 48, 72 h", "value": "cell proliferation reductions"}, {"measurement": "growth inhibition at low concentrations", "setting": "MDA-MB-436 cells [3]; MDA-MB-436, 0.01-10 µM, 72 h", "value": "higher inhibitory growth effects at lower micromolar concentrations when compared to RES"}, {"measurement": "fold lower IC50 of A-1 than A-3", "setting": "MDA-MB-436 cells [3]; MDA-MB-436, 24 h", "value": "nine-fold"}, {"measurement": "fold lower IC50 of A-1 than RES", "setting": "MDA-MB-436 cells [3]; MDA-MB-436, 24 h", "value": "eight-fold"}, {"measurement": "IC50", "setting": "MDA-MB-231 cells [4]; MDA-MB-231, 24 h, MDA-MB-231, 24 h, in Figure 2 panels", "value": 1840, "unit": "nM"}, {"measurement": "IC50", "setting": "MDA-MB-231 cells [4]; MDA-MB-231, 24 h, MDA-MB-231, 24 h of treatment", "value": 2680, "unit": "nM"}, {"measurement": "IC50", "setting": "MDA-MB-231 cells [4]; MDA-MB-231, 48 h, MDA-MB-231, 48 h, in Figure 2 panels", "value": 1420, "unit": "nM"}, {"measurement": "IC50", "setting": "MDA-MB-231 cells [4]; MDA-MB-231, 48 h, MDA-MB-231, 48 h of treatment", "value": 7820, "unit": "nM"}, {"measurement": "IC50", "setting": "MDA-MB-231 cells [4]; MDA-MB-231, 72 h, MDA-MB-231, 72 h, in Figure 2 panels", "value": 2510, "unit": "nM"}, {"measurement": "IC50", "setting": "MDA-MB-231 cells [4]; MDA-MB-231, 72 h, MDA-MB-231, 72 h of treatment", "value": 2510, "unit": "nM"}, {"measurement": "IC50", "setting": "MDA-MB-231 cells [4]; MDA-MB-231, MDA-MB-231, all treatment time points", "value": "~2000", "unit": "nM"}, {"measurement": "antiproliferative effect (cell viability vs control)", "setting": "MDA-MB-231 cells [4]; MDA-MB-231, 1 µM, 24, 48, 72 h", "value": "cell proliferation reductions"}, {"measurement": "growth inhibition at low concentrations", "setting": "MDA-MB-231 cells [4]; MDA-MB-231, 0.01-10 µM, 72 h", "value": "higher inhibitory growth effects at lower micromolar concentrations when compared to RES"}, {"measurement": "fold lower IC50 of A-1 than RES", "setting": "MDA-MB-231 cells [4]; MDA-MB-231, 24 h", "value": "six-fold"}, {"measurement": "change in cell cycle phase distribution", "setting": "MCF-10A cells", "value": "no significant changes in the percentage of cells at different phases"}, {"measurement": "percentage of cells in G2-M phase", "setting": "MDA-MB-436 cells [5]; 0.1 µM, 48 h", "value": "25.82 ± 2.73", "unit": "%"}, {"measurement": "percentage of cells in G2-M phase", "setting": "MDA-MB-436 cells [5]; 0.1 µM, 72 h", "value": "38.89 ± 0.08", "unit": "%"}, {"measurement": "percentage of cells in G2-M phase", "setting": "MDA-MB-436 cells [5]; 1 µM, 24 h", "value": "23.97 ± 0.57", "unit": "%"}, {"measurement": "percentage of cells in G2-M phase", "setting": "MDA-MB-436 cells [5]; 1 µM, 48 h", "value": "31.07 ± 0.29", "unit": "%"}, {"measurement": "percentage of cells in G2-M phase", "setting": "MDA-MB-436 cells [5]; 1 µM, 72 h", "value": "36.88 ± 1.42", "unit": "%"}, {"measurement": "cell cycle effect", "setting": "MDA-MB-436 cells [5]; 0.1 and 1 µM", "value": "increased the percentage of cells in the G2-M phase"}, {"measurement": "percentage of cells in G2-M phase", "setting": "MDA-MB-231 cells [6]; 0.1 µM, 72 h", "value": "27.73 ± 4.33", "unit": "%"}, {"measurement": "percentage of cells in G2-M phase", "setting": "MDA-MB-231 cells [6]; 1 µM, 24 h", "value": "~31.73 ± 4.00", "unit": "%"}, {"measurement": "percentage of cells in G2-M phase", "setting": "MDA-MB-231 cells [6]; 1 µM, 48 h", "value": "~25.13 ± 0.89", "unit": "%"}, {"measurement": "percentage of cells in G2-M phase", "setting": "MDA-MB-231 cells [6]; 1 µM, 72 h", "value": "31.28 ± 3.45", "unit": "%"}, {"measurement": "cell cycle effect", "setting": "MDA-MB-231 cells [6]; 0.1 and 1 µM", "value": "cell arrest in the G2-M phase"}]}]}
